Measurements: PMC4599014, “The Cell Shape-determining Csd6 Protein from Helicobacter pylori Constitutes a New Family of L,D-Carboxypeptidase*” (The Journal of Biological Chemistry, 2015)
Read-outs that look alike come from different tables or passages of the source. [ ]: non-standard residue; d: D form. mDAP = meso-diaminopimelic acid

Tests used:
H. pylori Csd6 = H. pylori Csd6 (Helicobacter pylori, UniProt O25255); assay: SPR kinetics and affinity on immobilized Csd6; format: binding, Helicobacter pylori 26695; details: for kon: read-out: association rate constant ka; for koff: read-out: dissociation rate constant kd
Description: The kinetics and affinity of Csd6 with the synthetic muramyl tetrapeptide and muramyl tripeptide (β-methyl N-acetylmuramic acid-L-Ala^1-γ-D-Glu^2-mDAP^3) as a reaction product were assessed using a Reichert SR7500 surface plasmon resonance (SPR) dual channel instrument (Reichert, Depew, NY). Purified Csd6 in 20 mM sodium acetate, pH 5.5, was immobilized using the standard amino coupling at 20 μl min^−1 on a carboxymethyl dextran hydrogel surface sensor chip (Reichert, Depew, NY) until saturation was achieved. The running buffer B used in all SPR experiments was 20 mM HEPES, pH 7.9, and 150 mM sodium chloride. SPR experiments were performed at 25 °C. The muramyl tetrapeptide or muramyl tripeptide at concentrations of 15.6, 31.3, 62.5, 125, 250, and 500 μM was injected over the Csd6-chip at 30 μl min^−1 for 5 min for association analyses. Subsequently, the running buffer was flowed over the chip for an additional 6 min (30 μl min^−1) for dissociation analyses. Regeneration of the chip was carried out using 20 mM sodium hydroxide. Binding was detected as a change in the refractive index at the surface of the chip as measured by the response unit. A reference flow cell was used to record the response by bovine serum albumin (BSA) as a […], and the response by BSA was subtracted from each sample. SPR data were fit using the Scrubber2 software.
FIGURE 5.

Csd6 [1] = assay: Crystal structure of D-Ala-bound Csd6; format: binding, Helicobacter pylori 26695; details: native crystal preincubated 2 min with 96 mM D-Ala; 2.04 Å, PDB 4Y4V
Description: Native crystals of ligand-free Csd6 were grown at 23 °C by the sitting-drop vapor diffusion method. Sitting drops were prepared by mixing 0.5 μl of the protein solution, 0.1 μl of a 10-fold diluted microseed crystal solution, and 0.4 μl of the reservoir solution (1.5% (v/v) Tacsimate, pH 7.0, 22% (w/v) PEG 3,350, and 100 mM sodium-HEPES, pH 7.5). The microseed crystals were originally obtained with ligand-free Csd6 using the above reservoir solution. The crystals grew to approximate dimensions of 0.2 × 0.1 × 0.05 mm within a few days. X-ray diffraction data for the ligand-free Csd6 (Csd6-unbound) were collected at 100 K using a cryoprotectant solution containing 20% (v/v) glycerol added to the reservoir solution (Table 1). X-ray diffraction data for the D-Ala-bound Csd6 (Csd6-Ala) were collected at 100 K after the native crystal was preincubated for 2 min in a cryoprotectant solution containing both 20% (v/v) glycerol and 96 mM D-Ala, which were added to the reservoir solution (Table 1). The structures of both Csd6-unbound and Csd6-Ala were determined by molecular replacement with the program MolRep ([47]) using the refined model of EMTS-derivatized Csd6. Stereochemistry of the refined models was evaluated using MolProbity ([48]).

Csd6 [2] = format: biochemical, Helicobacter pylori 26695; details: analyte 5 mM, Csd6 5 μM, 2 h, 37 °C; 20 mM sodium phosphate, pH 6.0, 150 mM sodium chloride; MALDI-QIT-TOF MS
LdtMt2 = details: positive control for L,D-TPase activity; recombinant LdtMt2 (Ala-55–Ala-408); MALDI-QIT-TOF MS
[3] = biological target: the molecule itself; assay: AUC; equilibrium sedimentation; 20 mM Tris-HCl pH 7.9, 150 mM NaCl, 1.5 mM TCEP, 20 °C; 16,000 and 20,000 rpm; Csd6 monomer concentrations 2.74, 3.65 and 4.56 μM
[4] = format: biochemical; details: muramyl tetrapeptide
[5] = recombinant hexahistidine-tagged Csd6; cited from earlier work
Description: In many bacteria, including H. pylori, the peptidoglycan layer is remodeled by a number of cell-wall hydrolases as well as synthetases for the peptidoglycan maturation, regulation of cell-wall growth, cell division, peptidoglycan turnover and recycling, cell lysis, and the release of peptidoglycan fragments for host-pathogen interactions ([18]). In H. pylori, an amidase AmiA ([19]), peptidases Csd1–4, potential regulators Csd5 and CcmA ([20][–][22]), and another peptidase Csd6 ([23]) are required to tailor the peptidoglycan layer to generate the helical cell shape. We have recently reported th ...

[6] = SPR, Reichert SR7500, Csd6 immobilized by amine coupling, 20 mM HEPES, pH 7.9, 150 mM sodium chloride, 25 °C, analyte 15.6-500 μM, Scrubber2 fit, read-out: KD
[7] = muramyl tripeptide vs muramyl tetrapeptide, SPR, Csd6

## C[C@@H](N)C(=O)O [D-Ala]
H. pylori Csd6
  Kd: 224 µM
  kon: 1.05 M⁻¹ s⁻¹
  koff: 0.00023 s⁻¹
Csd6 [1]
  binding in crystal structure (in words): two D-Ala molecules are well ensconced within the active site of monomer A with clear electron density

## β-methyl N-acetylmuramic acid-L-Ala^1-γ-D-Glu^2-mDAP^3-D-Ala^4 [muramyl tetrapeptide]
Csd6 [2]
  reaction product upon incubation with Csd6: the muramyl tripeptide was detected as the sole reaction product of trimming without any dimeric cross-linked species
LdtMt2
  reaction product upon incubation with LdtMt2: not only the muramyl tripeptide (Tri in Fig. 1C) but also the dimeric cross-linked species (Tetra-Tri in Fig. 1C) were detected as the reaction products

## N[C@H](CCC[C@H](N)C(=O)O)C(=O)O [mDAP, meso-2,6-diaminopimelate]
H. pylori Csd6
  Kd: 94 µM
  kon: 1.49 M⁻¹ s⁻¹
  koff: 0.00014 s⁻¹

## β-methyl N-acetylmuramic acid-L-Ala^1-γ-D-Glu^2-mDAP^3 [muramyl tripeptide]
H. pylori Csd6; [6]
  Kd: 510 µM
H. pylori Csd6; [7]
  ka relative to that for the muramyl tetrapeptide: roughly 3 ×
  kd relative to that for the muramyl tetrapeptide: ~50 ×

## β-methyl N-acetylmuramic acid-L-Ala^1-γ-D-Glu^2-mDAP^3-D-Ala^4 ({β‑methyl N‑acetylmuramic acid}-AE[mDAP][dA]-OH; not fully specified (residue 2)) [muramyl tetrapeptide]
H. pylori Csd6; [6]
  Kd: 27 µM

## β-methyl N-acetylmuramic acid-L-Ala^1-γ-D-Glu^2-mDAP^3-D-Ala^4-D-Ala^5 [muramyl pentapeptide]
Csd6 [2]
  reaction product upon incubation with Csd6: no reaction product could be detected

B1: Helicobacter pylori Csd6 (HP0518), residues Val-13–Lys-330 (enzyme, Helicobacter pylori 26695, UniProt O25255 13-330, looked up)
chain: VGLNASDRLLEIMRLYQKQGLEMVGQKLDSYLADKSFWAEELQNKDTDFGYYQNKQFLFVANKSKPSLEFYEIENNMLKKINSSKALVGSKKGDKTLEGDLATPIGVYRITQKLERLDQYYGVLAFVTNYPNLYDTLKKRTGHGIWVHGMPLNGDRNELNTKGCIAIENPLLSSYDKVLKGEKAFLITYEDKFFPSTKEELSMILSSLFQWKEAWARGDFERYMRFYNPNFTRYDGMKFNAFKEYKKRVFAKNEKKNIAFSSINVIPYPNSQNKRLFYVVFDQDYKAYQHNKLSYSSNSQKELYIEIENNQVSIIMEK
notes: Csd6 (HP0518), L,D-carboxypeptidase of Helicobacter pylori strain 26695, residues Val-13–Lys-330 of the gene product; In the Csd6-Ala crystal, Cys-176 of monomer A is oxidised to sulfenic acid; also called Csd6(13–330); recombinant Csd6; source: E. coli Rosetta2(DE3)pLysS, purified (HiTrap Chelating HP, Superdex 200)
[3]
  stoichiometry N: 2

B2: Csd6: recombinant H. pylori 26695 Csd6 protein, residues Val-13–Lys-330, with N-terminal His6-containing tag (protein)
chain: VGLNASDRLLEIMRLYQKQGLEMVGQKLDSYLADKSFWAEELQNKDTDFGYYQNKQFLFVANKSKPSLEFYEIENNMLKKINSSKALVGSKKGDKTLEGDLATPIGVYRITQKLERLDQYYGVLAFVTNYPNLYDTLKKRTGHGIWVHGMPLNGDRNELNTKGCIAIENPLLSSYDKVLKGEKAFLITYEDKFFPSTKEELSMILSSLFQWKEAWARGDFERYMRFYNPNFTRYDGMKFNAFKEYKKRVFAKNEKKNIAFSSINVIPYPNSQNKRLFYVVFDQDYKAYQHNKLSYSSNSQKELYIEIENNQVSIIMEK
modifications: left off: His6-containing tag, N-terminal, state not stated
notes: recombinant H. pylori 26695 Csd6 protein, residues Val-13–Lys-330, with N-terminal His6-containing tag
[4]
  L,D-carboxypeptidation activity upon EDTA treatment (in words): no change upon EDTA treatment
[5]
  conversion of monomeric tetrapeptides: complete conversion of the monomeric tetrapeptides to tripeptides
